The IC50 is the midpoint of a concentration-inhibition curve.

The values below come from patent US20250049927A1, “MODIFIED OLIGONUCLEOTIDE-DRUG CONJUGATE AND USE THEREOF” (INTEROLIGO CORPORATION., priority 2021, published 2025).

A short description of series [1]: Pharmacokinetic evaluation in rats: plasma MMAE by LC-MS/MS. It is filed as in vivo, Sprague-Dawley male rats. As to conditions: rat, MMAE 4 mg/kg alone intravenous. As to the method:
After pretreating samples by protein precipitation, plasma concentration of MMAE was analyzed using liquid chromatography-tandem mass spectrometry (hereinafter referred to as LC-MS/MS) established in the Pharmacology/Pharmacokinetics Laboratory of the Catholic University College of Pharmacy. All analysis processes were conducted under light-shielding conditions.
[…] standard products were dissolved in acetonitrile to prepare a 1 mg/mL of storage solution and store it frozen.

The subject of another series is Sprague-Dawley male rats. In words: Death of rats after intravenous administration in the pharmacokinetic study. As to conditions: MMAE 4 mg/kg intravenous. It is filed as in vivo.
The subject of series [2] is BxPC-3-Luc orthotopic pancreatic cancer. In words: Orthotopic pancreatic cancer animal model, patch-type collagen drug delivery system inserted at tumor site. The class given is in vivo, BALB/c-nude male mice. As to conditions: 2.0 mg-loading collagen patch; for IVIS whole body image: change in luminescence / dead mice: inserted once; for IVIS whole body image: change in luminescence: 4 weeks; for dead mice: 28 days. The source says: To deliver the modified oligonucleotide-drug conjugates to an animal model, high-purity collagen (COLTRIX® Tendoregen, Ubiosis Co., Ltd.) dispersion (1.0%) and samples (e.g., modified oligonucleotide-drug conjugates, gemcitabine, etc.) to be tested were mixed, poured into a circular silicone mold having a diameter of 1 cm, and lyophilized to prepare a “patch-type collagen drug delivery system” in which the samples were loaded in the collagen. Amounts of the samples loaded per patch-type collagen drug delivery system are as shown in Table 3 below (in Table 3, SEQ ID NO: 16 is 5′-(Gem)(Gem)[TGG]4[TTG][TGG]5-3′, wherein Gem-Gemcitabine).
Specifically, each of sample (gemcitabine, IO101L (SEQ ID NO: 16) and modified oligonucleotide-drug conjugates (Example 5 and Example 9) to be tested was added to the high-purity collagen, and then uniformly mixed using a multi-mixer (SLRM-3, MYLAB) at 4° C. for 1 hour. Thereafter, a predetermined amount of the collagen-drug mixture was dispensed into a cylindrical silicone mold having a diameter of 1 cm and the collagen-drug mixture was primary frozen at −20° C. for 4 hours or more. After the first freezing was completed, the sample was separated from the cylindrical silicone mold and transferred to a sterile dish or plate, and then secondary frozen at −80° C. for 2 hours or more. After preliminary freezing so that the cold trap temperature of a lyophilizer was-80° C., the mixture was placed in the lyophilizer and lyophilized for more than 16 hours. The lyophilized mixture was compressed in the form of a patch using an acrylic plate, then was put into an aluminum pouch and sealed. The packaged patch-type collagen drug delivery system was refrigerated at 4° C.
The frozen cancer cell line (BxPC-3-Luc) (Asan Institute for Life Sciences) was thawed, and then cultured in an RPMI1640 medium (Biowest, Cat #. L0498-100) in which 10% fetal bovine serum (Biowest, Cat #. S1480) and 1% antibiotic (Gibco, Cat #. 15240062) were supplied at 37° C. under 5% CO2 condition. The thawed cells were cultured for one week to confirm that there were no problems with the shape, survival rate, and doubling time.
Cancer cells having a cell survival rate of 95% or more were prepared in order to transplant them into mice. The cells were harvested using trypsin, and prepared so as to transplant them into 5×10^5 cells/25 μl/mouse by being turbid in RPMI 1640 media. 6-week old BALB/c-nude male mice stabilized for 1 week (purchased from Jabio, Korea) were subjected to abdominal anesthesia, and the pancreas was taken out by dissecting the abdominal region of each anesthetized mouse and cells of 5×10^5 cells/25 μl were transplanted. After 2 weeks, tumor formation was confirmed through luciferase imaging. […] The patch-type collagen drug delivery system prepared in the above (1) was inserted (intra-abdominal cavity insertion using surgery) into the tumor site of each mouse in the respective groups. All animal experiments included in the present test were performed according to the Institutional Animal Care and Use Committee (IACUC) of the Asan Institute for Life Sciences [2022-14-058].
After inserting the patch-type collagen drug delivery system, changes in the tumor size were observed using IVIS imaging equipment (Xenogen IVIS spectrum system; Caliper Life Science, Inc., Hopkinton, MA) at an interval of 3 times a week for 4 weeks to check the body weight. […]

The test system of series [3] is BxPC-3 pancreatic cancer cell lines. As to the kind of experiment: Pancreatic cancer cell growth inhibition, WST assay. The settings on record: BxPC-3, 72 hours treatment, absorbance 450 nm. It is filed as cell-based. As to the method: The in vitro anticancer efficacy of the modified oligonucleotide-drug conjugates was verified using pancreatic cancer cell lines. Pancreatic cancer cell lines (BxPC-3) were treated with the above-described examples and comparative examples at concentrations of 0, 0.01, 0.1, 1, 10, 100, 500 and 1000 μM, and the specific IC50 measurement method and measurement results are as follows.
All cell lines were cultured in a 5% CO2 incubator at 37° C. The BxPC-3 pancreatic cancer cell lines were cultured using a medium containing 10% FBS and 1% antibiotics put into ATCC modified RPMI-1640 (Thermo Scientific, USA). The medium was replaced once every 2-3 days, and passage-cultured at a time when about 70-90% of a culture dish was filled with the cells. First, the cells were washed with PBS, then 0.05% Trypsin-EDTA was added and cultured at 37° C. for 2 minutes, and then a new medium was added to inactivate trypsin. The cells were separated from trypsin and medium using a centrifuge, then another new medium was added and passaged at a ratio of 1:4, followed by culturing the same. All cells were periodically checked for contamination by mycoplasma using a kit (Intron, Korea), and in vitro efficacy evaluation experiments were conducted using only cells in which contamination was not detected.
Using WST reagent (Dongin LS, Korea), an inhibitory effect on pancreatic cancer cell growth by drug treatment was confirmed and IC50 was measured. An orange coloring substance called formazan is produced in WST by mitochondrial dehydrogenase within cells, which is effective only in living cells. The specific test method is as follows.
The cells cultured by the above-described method were dispensed by 2×10^4 into each well of a 96-well culture vessel and cultured for 24 hours. The medium of the cells attached to the culture vessel was replaced with an ATCC modified RPMI-1640 medium containing 5% FBS, and samples of the above-described modified oligonucleotide-drug conjugates (Examples 1-7 and 9-12, and Comparative Example 1-7, respectively) were treated at concentrations of 0, 0.01, 0.1, 1, 10, 100, 500 and 1000 μM. After 72 hours, 10 μl of WST reagent was added to each well and reacted for 2 hours. The produced formazan was measured with an absorbance at 450 nm using a Glomax plate meter (Promega, USA), and IC50 was evaluated according to the protocol in the device. IC50 evaluation results and graphs illustrating the same are shown in Table 2 below and FIGS. 19 to 27 (in Table 2, M=Gemcitabine, and N=5-FdU).

Non-standard residues stand in square brackets, D forms with d. Residues, ends and D or L forms follow the SMILES beside them. *: point of attachment. Dolaproine = CO[C@@H]([C@@H]1CCCN1)[C@@H](C)C(=O)O; Dil = CC[C@H](C)[C@H](NC)[C@@H](CC(=O)O)OC; X1 = C[C@@H](N*)[C@@H](O)c1ccccc1; NMeV = CN[C@H](C(=O)O)C(C)C

Description for Sprague-Dawley male rats: Specifically, Sprague-Dawley male rats (8 weeks old, purchased from Youngbio) were acclimatized for 1 week in the animal room of the Catholic University Songsim Campus, and then pharmacokinetic experiments were performed. Rats were induced with isoflurane, an inhalation anesthetic, and PE50 (polyethylene tubing, Clay Adams, Becton Dickinson, NJ, USA) was inserted into the carotid (for blood collection) and jugular vein (for drug administration), followed by suturing with suture, and then end portions thereof were fixed to the back of the neck. During the surgery, anesthesia was maintained using ether, and about 0.5 mL of physiological saline solution containing heparin (20 units/mL) was injected to prevent blood from coagulating in the cannula. After completing the surgery, each rat was placed in a metabolic cage and allowed to fully recover from the anesthetic (for 4-5 hours). […] All of Example 9, MMAE and gemcitabine were dissolved in physiological saline at 2 mL per kg of body weight and administered into the jugular vein at doses of 40 mg/kg, 4 mg/kg and 2 mg/kg, respectively. […]

As for `CC[C@H](C)[C@@H]([C@@H](CC(=O)N1CCC[C@H]1[C@H](OC)[C@@H](C)C(=O)N[C@H](C)[C@@H](O)c1ccccc1)OC)N(C)C(=O)[C@@H](NC(=O)[C@@H](NC)C(C)C)C(C)C` [MMAE, Monomethyl auristatin E] (H-[NMeV]V[Dil][Dolaproine]-X1), in series [1], the “AUC of MMAE up to 120 minutes higher than Example 9 (IO176) 40 mg/kg group” value is recorded as “about 9.70 times” and the “plasma concentration of MMAE at 1 minute after administration” value worked out at 29640 ± 7190 ng/mL. Further, the “AUCt of MMAE” value in series [1] (to final quantification time) was found to be 128 ± 16.1 µg·min/mL. In addition, in series [1] (up to 120 minutes), the “AUC0-120 of MMAE” value is 71.7 ± 9.61 µg·min/mL. Also, the “death of tested rats” value with Sprague-Dawley male rats was “all tested 7 rats were died”.
For “Example 5 (GGTGGTGGTGGNNGNGGTGGTGGTGG; paclitaxel via acrylamide-C6-NH-succinic acid linker on U; modified_base 13 OTHER; deoxyuridine(dU); modified_base 12 OTHER; gemcitabine; modified_base 15 OTHER)”, in series [2], the “effect of inhibiting tumor (IVIS images, tumor size and weight)” value was “excellent effect of inhibiting tumor appeared”; the “IVIS whole body image: change in luminescence” value is given as “changes in the fluorescence were decreased”; the dead mice entry was “no dead mouse was observed”. The same compound yielded an IC50 in series [3] of 100 nM.
For the compound “IO101L: SEQ ID NO: 16, 5′-(Gem)(Gem)[TGG]4[TTG][TGG]5-3′, Gem=Gemcitabine (DNA NNTGGTGGTGGTGGTTGTGGTGGTGGTGGTGG; two 5' gemcitabine nucleotides; modified_base 1 OTHER; gemcitabine; modified_base 2 OTHER)”, in series [2], the “IVIS whole body image: change in luminescence” value is reported as “luminescence was gradually increased over time” and the dead mice entry is “there were dead mice”.
